The values below come from patent US9410947B2, “Fluorescent dyes and related methods” (University of Washington through its Center for …, priority 2012, dated 2016).

The subject of one series is Prorocentrum minimum. Kind of series: Flow cytometric analysis of DNA staining in alga. Particulars: 1% DMSO. Type of series: cell-based. The text has this: In another aspect, this example describes a set of experiments to investigate DANPY-1 dye for use in flow cytometric analysis of DNA. The alga Prorocentrum minimum was selected for these studies. Several controls were run to: (a) ensure that cell integrity was maintained, (b) assess the contribution of unbound DANPY-1 to fluorescent background signals and (c) determine a dye concentration and the intensity of the fluorescent signal when the target DNA is fully saturated with bound dye. The DANPY-1 concentrations that were tested in these preliminary experiments ranged from 7.1 μM to 228 μM. All of the flow cytometric work was performed on an Accuri C6 flow cytometer (BD Scientific, Ann Arbor, Mich.). The excitation wavelength for the FL1, FL2, and FL3 detectors (or channels) is 488 nm and the FL4 laser excites at a wavelength of 640 nm. The fluorescent wavelengths that each channel detects are as follows: FL1 530/30, FL2 585/40, FL3 670 LP and FL4 675/25. These experiments are summarized below (data not shown): […]

Another series is described as follows: Solubility in solvents. Type of series: physicochemical.
A further series concerns salmon sperm DNA. Description: Photometric (colorimetric) titration of dye solutions with DNA, Scatchard / n-K fit. Type of series: binding. The protocol: Dye/DNA binding was assessed. The binding constant and number of dye molecules bound per base pair were assessed by means of photometric titrations (Peacocke, A. R.; Skerrett, J. N. H., Trans. Faraday Soc. 1956, 52, 261, Angerer, L. M.; Moudrianakis, E. N., J. Mol. Bio. 1972, 63, 505-521) of dye solutions with commercially available salmon sperm DNA (Sigma Aldrich, MW 50 kD to 100 kD) in 10 mM TE buffer at pH 7.2. Experiments were run using a temperature-controlled Ocean Optics diode array spectrophotometer at 25.0° C., with 2.5 mL of dye solution at a concentration sufficient for an initial optical density near 0.75, adding 1.5 mM DNA solution in 30 μL aliquots.
This example describes affinity of DANPY-1 to DNA. […] These experiments were analyzed using the Scatchard equation (Scatchard, G., Ann. N.Y. Acad. Sci. 1949, 51, 662-672.) […]
A titration methodology was also used. Dyes were evaluated for their DNA-binding properties by means of colorimetric titrations in buffered aqueous solution (1×TE buffer titrated to pH 7.2 with HCl). […] After allowing the solution to mix for about one minute, the stirrer was stopped and a spectrum was recorded. If the initial absorbance of the dye was ≧1, the dye solution was diluted with the appropriate solvent (TE buffer, methanol, or butanol) until the initial absorbance was <1. […] The reduced absorbance change […]

For series [1] the following is noted: in chloroform, extrapolated to zero frequency; cited from earlier work.
Another series relates to dsDNA. Kind of series: QCM-D binding study, dsDNA layer. On the set-up: species or system salmon. Particulars: pH 7.2 1×TE buffer, 298 K, 0.3 mL/min, rinse ten minutes. The text has this:
(§1) In yet another aspect, the present disclosure includes methods for quantifying nucleic acid molecules in a sample. For example, the present disclosure can include a method of determining a quantity of a nucleic acid molecule in a sample using the Quartz Crystal Microbalance with Dissipation Monitoring (QCM-D) method. QCM-D can be used to determine the formation of films (e.g., nm in thickness). For example, films may be formed on a surface from proteins, polymers, surfactants and cells. QCM-D can detect films formed in liquid and may be used to determine binding kinetics of, for example, cationic dyes (e.g., ethidium bromide, DANPY-1 and/or DAST). For example, a Q-Sense instrument (e.g., a Q-Sense E4 instrument, Biolin Scientific AB, Stockholm) can be used for QCM-D using a dedicated set of QCM sensors (e.g., SiO2-coated). The procedures of cleaning, deposition, mass monitoring, and preparing nucleic acid for QCM-D are known. (R. J. Rawle, C. R. D. Selassie, M. S. Johal, Langmuir 2007, 23, 9563-9566). Data can be output as kinetics that can include structural changes and mass changes. The crystals can be, for example, coated with a polyethylene imine (PEI) layer to enable binding of anionic nucleic acids. The crystals can be, for example, coated with a polymer polystyrene sulfonate (PSS), that only undergoes loose electrostatic binding. […]

Another series deals with ssDNA. Kind of series: QCM-D binding study, ssDNA layer. The arrangement: species or system salmon. Particulars: pH 7.2 1×TE buffer, 298 K, 0.3 mL/min, rinse ten minutes.
From the text: as §1

The nature of series [2]: QCM-D binding study, PSS control polymer. Particulars: pH 7.2 1×TE buffer, 298 K.
From the text: as §1

For the next series, the system named is tRNA. Kind of series: QCM-D binding study, tRNA layer. Particulars: pH 7.2 1×TE buffer, 298 K, 0.3 mL/min, rinse ten minutes.
From the text: as §1

Series [3] in a line: QCM-D binding study, bare SiO2 control. Particulars: pH 7.2 1×TE buffer, 298 K.
From the text: as §1

A short description of series [4]: QCM-D binding study, PEI layer. The text has this:
The three nucleic acids (e.g., single-stranded DNA (ssDNA), double-stranded DNA (dsDNA), and transfer RNA (tRNA)) used in this example are anionic. The crystals were coated with a polyethylene imine (PEI) layer to create a surface and enable binding of the nucleic acids. […] Polystyrene sulfonate (PSS) was used as a control polymer. As controls, PSS which can only undergo loose electrostatic binding, and bare SiO2 were used. Any materials used for coating were allowed to deposit until a stable mass was reached (e.g., for five minutes) followed by five minutes of rinsing with buffer between each layer; (1) PEI or PSS, (2) nucleic acid and (3) the dye. After deposition, the film was rinsed with buffer for ten minutes. If the adsorbed mass returned to near the form immediately prior to the addition of the dye, then remained stable, the binding was characterized as reversible. Binding was characterized as irreversible if the mass remained constant after rinsing or leveled off at a substantially higher value than before the dye was added.

Entries after “also recorded” stand apart in the source; their conditions may differ.

With `CC(=O)[O-].CN(C)c1ccc2cc(-c3cc[n+](C)cc3)ccc2c1` [DANPY-1, dimethylaminonaphthylpyridinium], the cell concentration with Prorocentrum minimum (7.1 μM dye, 10 minute exposure) is recorded as 1.02e5 cells/mL; in the series with Prorocentrum minimum (57 μM dye, 10 minute exposure), 9.5e4 cells/mL; with Prorocentrum minimum (228 μM dye, 10 min exposure), 8.1e4 cells/mL. Moreover, the “impact on cell integrity” value in the series on Prorocentrum minimum (7.1 μM dye, 10 minute exposure) was “no impact on cell integrity”; in the series with Prorocentrum minimum (57 μM dye, 10 minute exposure) it was “no impact on cell integrity”; with Prorocentrum minimum (228 μM dye, 10 min exposure), “some impact on cell integrity”. Also, the “mean fluorescent intensity FL-1 channel” value stood at 6032 in the series on Prorocentrum minimum (7.1 μM dye, FL1 530/30, ex 488 nm) and 26131 with Prorocentrum minimum (228 μM dye, FL1 530/30, ex 488 nm). In addition, the “mean fluorescent intensity FL-2 channel” value stood at 40801 in the series on Prorocentrum minimum (7.1 μM dye, FL2 585/40, ex 488 nm) and 412988 in the series on Prorocentrum minimum (228 μM dye, FL2 585/40, ex 488 nm). The “mean FU intensity FL-1 channel” value in the series with Prorocentrum minimum (57 μM dye, FL1 530/30, ex 488 nm) turned out to be 17951 FU. For the same compound, in the series with Prorocentrum minimum (57 μM dye, FL2 585/40, ex 488 nm), the “mean FU intensity FL-2 channel” value turned out to be 167481 FU. In addition, the “solubility in standard spin-coating solvents” value in “Solubility in solvents” (TCE and cyclopentanone) is “poorly soluble”. Besides, the solubility in butanol result in the series “Solubility in solvents” (butanol) is given as “poorly soluble”. Besides, the “solubility in lower alcohols” value in the series “Solubility in solvents” (methanol, ethanol, and n-propanol) is reported as “highly soluble”.

Take `CCN(CCO)c1ccc(N=Nc2ccc([N+](=O)[O-])cc2)cc1` [DR1, Disperse Red 1]: the “change in the absorbance peak on titration with DNA” value with salmon sperm DNA (1:1 TE buffer and ethanol) is “no substantial change in the absorbance peak”. Besides, the solubility in water result in “Solubility in solvents” (water) was “not sufficiently soluble”. Moreover, the “static hyperpolarizability βzzz(0)” value in series [1] is 54±5 10^−30 esu.

Regarding “trans-4-[4-(Dimethylamino)styryl]-1-methylpyridinium toluenesulfonate [DAST]”, the “shift in absorbance maximum upon addition of DNA” value in the series on salmon sperm DNA (TE buffer) is recorded as “exhibited a shift in absorbance maximum”. The “QCM-D binding to dsDNA” value with dsDNA is “did not interact strongly and None”. In the series on ssDNA, the “QCM-D binding to ssDNA” value is listed as “interacted strongly; also recorded: Irreversible”. For the same compound, in [2], the “QCM-D binding to PSS” value is given as “interacted strongly; also recorded: Partially”. In addition, in the series on tRNA, the “QCM-D binding to tRNA” value is “did not interact strongly; also recorded: Reversible”. Moreover, in [3], the “QCM-D binding to SiO2” value was “Reversible”. Moreover, the “QCM-D binding to PEI layer” value in series [4] was “did not bind”.
